In article PMC9058666 (RSC Advances, 2020):

Key:
[1] = SD, rat, in vivo, po
in vivo = details: SD, rat, po, 50 mg/kg

For `O=c1[nH]cc(F)c(=O)[nH]1` [5-FU, 5-Fluorouracil], the “Cmax of 5-FU (from Fig. 7, mean plasma concentration-time profile)” value [1] was 20000 ng/mL, the “time at which Cmax was reached (from Fig. 7)” value [1] was 0.5 h and the AUC(0-inf) (in vivo) was 54600 ± 15000 ng·h/mL. It also gave an AUC(0-t) (in vivo) of 50400 ± 10800 ng·h/mL, a Cmax (in vivo) of 21000 ± 1980 ng/mL and a Tmax (in vivo) of 0.667 ± 0.289 h. The half-life (in vivo) was 1.47 ± 0.449 h.
